Values joined by “and” are separate entries in the source; they are usually repeats but may differ in a detail not shown here. Equal entries are not always repeated. Where two headings read alike, the source gives them in different places.
Tests used:
[1] = test system: Plasmodium falciparum F32-TEM (artemisinin-sensitive twin line); assay: Standard chemosensitivity assay (SYBR Green I), F32-TEM; format: cell-based; details: Plasmodium falciparum, read-out: Antiplasmodial Activity: IC50, F32-TEM
Procedure: (§1) They differ by eight mutations in seven genes (PF3D7_0110400, PF3D7_1343700, PF3D7_0213400, PF3D7_1115700, PF3D7_1302100, PF3D7_1459600, PF3D7_1464500) among them the M476I mutation on the kelch13 gene. F32-ART and F32-TEM strains have RSA^0–3 h values up to 12% and less than 0.1%, respectively. […] Both strains were cultured, in the same conditions, according to the Trager and Jensen protocol with modifications. Briefly, parasites were cultivated in RPMI-1640 medium (Biowest) at 2% hematocrit in human red blood cells and 5% human serum (EFS, French Blood Bank) under 5% CO2 in a humid atmosphere at 37 °C.
(§2) The antimalarial activities of the compounds were evaluated on both strains. […] Antimalarial activities were determined with the SYBR Green I method. Each drug concentration was tested in triplicate. The parasites were incubated with the drugs for 48 h. Plates were read on a BioTek FLX800 Microplate Fluorescence Reader (Bio-Tek instruments, Winooski, VT, USA) (λexcitation = 485 nm, λemission = 528 nm). Control parasite culture (i.e., RPMI with 0.5% DMSO) was referred to as 100% growth. IC50 and IC90 values were determined using GraphPad Prism version 7.05 (GraphPad Software, San Diego, CA, USA). Results were the mean of 3 independent experiments. When it is relevant, statistical significance between results obtained with both parasite strains was determined by a Mann–Whitney test using GraphPad Prism version 7.05.

[2] = test system: Plasmodium falciparum F32-ART (artemisinin-resistant strain); assay: Standard chemosensitivity assay (SYBR Green I), F32-ART; format: cell-based; details: for IC50: Plasmodium falciparum, read-out: Antiplasmodial Activity: IC50, F32-ART; for Selectivity Index CC50/IC50: ratio cytotoxicity (mammalian cell type of the CC50)/antiplasmodial activity on F32-ART
Procedure: as §1, §2

[3] = Cytotoxicity evaluation by MTT assay; format: cell-based; details: monkey, Vero cells, * mean of 2 experiments
Procedure: The cytotoxicity of all newly synthesized compounds was evaluated on the Vero cell lines (isolated from monkey kidney cells, gift from the Faculty of Pharmacy, Toulouse, France) by MTT assay according to Mosmann with slight modifications. Briefly, cells in MEM medium supplemented with 10% fetal calf serum, 2 mM L-glutamine, antibiotics (100 U/mL penicillin and 100 µg/mL streptomycin), and NEAA 1X, were seeded in 96-well plates. After a 24-h incubation at 37 °C and 5% CO2 in a humidified atmosphere, compounds were added with concentrations ranging from 5 nM to 50 μM in duplicate. […] The security index was calculated as the ratio of cytotoxicity/antiplasmodial activity.

H3K4me2 = assay: Immunoblotting, histone mark abundance in F32-ART parasites; format: cell-based, Plasmodium falciparum; details: 700nM DHA alone, F32-ART ring stage; 3 replicates (Fig 3D)
Procedure: (§3) Abundance of methylated and acetylated histone was determined in parasite cultures in different conditions: “not-treated”, “DHA 24 h”, “DHA 6 h/DHA 24 h” and “DHA 6 h/DHA + compound to be tested 24 h”. At the end of the treatments, parasite cultures were washed in RPMI-1640 and then twice in PBS 1× before red blood cell lysis with 0.075% saponin (Sigma-Aldrich) in PBS. Parasite ghosts were washed 3 times in PBS before incubating the ghosts with E1A lysis buffer (50 mM Hepes pH 7.5; 250 mM NaCl; 5 mM EDTA; 0.1% Triton X-100, 1 mM DTT, 0.2 mM PMSF supplemented with complete Mini EDTA-free protease inhibitor cocktail (Roche®, Basel, Switzerland)) for 15 min. Ghosts were then sonicated for 3 × 15s ON/OFF cycles to shear parasite membranes. Debris were pelleted by centrifuging for 15 min at 13,800× g and 4 °C, and supernatants (containing parasitic proteins) were then collected. Protein concentrations were determined using BCA assay (Bio-Rad, Hercules, CA, USA) according to the manufacturer’s instructions. For each sample, 10 µg of proteins were mixed with 4× sample buffer (10 mL 50% Glycerol, 5 mL 0.5 M Tris HCl pH 6.8, 4 mL 20% SDS, 0.02% Bromophenol blue for a total solution volume of 20 mL) and 100 mM DTT and then separated on 15% SDS-PAGE gels in Laemmli running buffer. Gels were then wet-transferred O/N at 20 V onto PVDF membranes. Membranes were blocked in TBST for 1 h at room temperature. Bottom parts were then probed with histone antibodies while upper parts were probed with PFALDOLASE antibody (Abcam, ab38905, Cambridge, UK) at 1:20,000 dilution. The following primary antibodies were used: anti-H3K4me1 (Abcam, ab8895); anti-H3K4me2 (Abcam, ab35356); anti-H3K9me2 (Abcam, ab1220); anti-H3K9me3 (Millipore, 07-442, Burlington, MA, USA); anti-tetra-acetyl H4 (Millipore, 06-866); anti-H4K8Ac (Millipore, 07-328); anti-H4K20me3 (Abcam, ab9053); anti-H3K4me3 (Diagenode) and anti-H3K9Ac (Millipore, 07-352) at 1:10,000. The following secondary antibodies were used: anti-rabbit IgG-Peroxidase produced in goat (Sigma-Aldrich) or anti-mouse IgG-Peroxidase (Sigma-Aldrich); at 1:20,000 dilutions. Blots were developed using ECL Prime Western Blotting (GE Healthcare, Chicago, IL, USA) and read on a Chemidoc touch imaging software. Densitometry analysis was performed by using ImageLab software from Bio-Rad. To determine if variations in histone abundances were statistically significant, immunoblotting experiments were performed on 3 biological replicates and each run was performed twice.

H3K4me3 = assay: as above; format: cell-based, Plasmodium falciparum; details: 700nM DHA alone, F32-ART ring stage; 3 replicates (Fig 3D)
Procedure: as §3

H4K8ac = assay: as above; format: cell-based, Plasmodium falciparum; details: 700nM DHA alone, F32-ART ring stage; 3 replicates (Fig 3D)
Procedure: as §3

H3K4me1 = assay: as above; format: cell-based, Plasmodium falciparum; details: 700nM DHA alone, F32-ART ring stage; 3 replicates (Fig 3D)
Procedure: as §3

H4ac4 = assay: as above; format: cell-based, Plasmodium falciparum; details: 700nM DHA alone, F32-ART ring stage; 3 replicates (Fig 3D)
Procedure: as §3

H4K20me3 = assay: as above; format: cell-based, Plasmodium falciparum; details: 700nM DHA alone, F32-ART ring stage; 3 replicates (Fig 3D)
Procedure: as §3

[4] = F32-TEM, 48 h incubation, SYBR Green I, mean ± SEM of 3 experiments (* mean of 2)
[5] = F32-ART, 48 h incubation, SYBR Green I, mean ± SEM of 3 experiments (* mean of 2)

Row | SMILES | IC50 [1, 4] [µM] | IC50 [2, 5] [µM] | CC50 [3] [µM] | Selectivity Index CC50/IC50 [2] | also measured
1 | O=C1c2ccccc2O[C@H](c2ccccc2[N+](=O)[O-])[C@@]1(Cl)[N+](=O)[O-] (relative stereo) [Flv69] | > 10 | > 10 | > 50 | – | –
2 | C[C@]1([N+](=O)[O-])C(=O)c2ccccc2O[C@@H]1c1ccccc1[N+](=O)[O-] (relative stereo) [MLo1302] | 8 | 7 | 6.5 | 0.9 | –
3 | O=C1c2ccccc2O[C@H](c2ccccc2)[C@]1(F)[N+](=O)[O-] (relative stereo) [MLo1401] | > 10 | > 10 | 20 | <2 | –
4 | O=C1c2ccccc2O[C@H](c2ccccc2[N+](=O)[O-])[C@@]1(Br)[N+](=O)[O-] (relative stereo) [MLo1507] | > 10 | > 10 | 40 | <4 | –
5 | O=C1c2ccccc2O[C@H](c2ccccc2F)[C@@]1(Br)[N+](=O)[O-] (relative stereo) [MLo1509] | > 10 | > 10 | > 50 | – | –
6 | Cc1sc2c(c1C)C(c1ccc(Cl)cc1)=N[C@@H](CC(=O)OC(C)(C)C)c1nnc(C)n1-2 [(+)-JQ-1] | > 10 | > 10 | 0.2 | <0.02 | –
7 | Cc1noc(C)c1-c1ccc2c(c1)nc(CCc1ccc(O)cc1)n2CCN1CCOCC1 [AKE-040] | > 10 | > 10 | 24 | <2.4 | –
8 | CC1=NN(C2CCC(C(=O)O)CC2)C(=O)C1=Cc1ccc(-c2cc(C)c(C)cc2[N+](=O)[O-])o1 (centres unmarked) [C646] | – | – | – | – | IC50 ([1]; F32, 48 h): > 10 µM; IC50 ([2]; F32, 48 h): > 10 µM
9 | C[C@H]1[C@@H](O)O[C@@H]2O[C@@]3(C)CC[C@H]4[C@H](C)CC[C@@H]1[C@@]24OO3 [DHA, Dihydroartemisinin] | – | – | – | – | Fold change of H3K4me2 abundance, DHA vs DMSO (H3K4me2): 1.36 and 1.49 and 1.08; Fold change of H3K4me3 abundance, DHA vs DMSO (H3K4me3): 0.71 and 0.98 and 0.76; Fold change of H4K8ac abundance, DHA vs DMSO (H4K8ac): increased level and 2.03 and 2.07 and 2.15; Fold change of H3K4me1 abundance, DHA vs DMSO (H3K4me1): 1.02 and 1.53 and 1.51; Fold change of H4ac4 abundance, DHA vs DMSO (H4ac4): increased level and 2.04 and 2.38 and 1.70; Fold change of H4K20me3 abundance, DHA vs DMSO (H4K20me3): increase and 1.51 and 1.65
10 | COc1ccc([N+](=O)[O-])c(C2Oc3ccccc3C(=O)C2(Cl)[N+](=O)[O-])c1 (centres unmarked) [Flv880] | > 10 | > 10 | > 50 | – | –
11 | O=C1c2ccccc2OC(c2ccccc2)C1[N+](=O)[O-] (centres unmarked) [MLo1406] | > 10 | > 10 | > 50 | – | –
12 | O=C1c2ccccc2OC(c2ccccc2)C1(Br)[N+](=O)[O-] (centres unmarked) [MLo1502] | > 10 | > 10 | > 50 | – | –
13 | COc1ccc([N+](=O)[O-])c(C2Oc3ccccc3C(=O)C2(Br)[N+](=O)[O-])c1 (centres unmarked) [MLo1508] | > 10 | > 10 | 36 | <3.6 | –
14 | COc1cccc(C2Oc3ccccc3C(=O)C2(Cl)[N+](=O)[O-])c1 (centres unmarked) [NFlav2018] | > 10 | > 10 | > 50 | – | –
15 | Cc1sc2c(c1C)C(c1ccc(Cl)cc1)=N[C@@H](CC(=O)NCC13CC4CC(CC(C4)C1)C3)c1nnc(C)n1-2 [SHH-878-1] | 10 | 10 | 3 | 0.3 | –
16 | C[C@@H]1CC[C@H]2[C@@H](C)C(=O)O[C@@H]3O[C@@]4(C)CC[C@@H]1[C@]32OO4 [artemisinin, Artemisinin] | 0.013 ± 0.003 | – | > 100 | – | –
